Reference: patent US20260133203A1, “DETECTION OF FUMARATE-DERIVED MODIFICATION IN A TEST SAMPLE” (UNIVERSITY OF SOUTH CAROLINA, priority 2017, published 2026)
Structures can show the parent of a compound that is named as a salt.

Key:
[1] = tested on: heme oxygenase 1 (HO-1); experiment: Western blot of HO-1 expression after DMF treatment; type: cell-based
Experimental: N1E-115 cells (subclone N1E-115-1 neuroblastoma cells) were obtained from Sigma (08062511, St. Louis, MO). The cells were grown and expanded in non-differentiation medium (NDM): 90% DMEM (Gibco™, Grand Island, NY) with 25 mM glucose, no pyruvate, 25 mM HEPES, 4 mM glutamine and 10% fetal bovine serum (FBS, Atlanta Biologicals, Atlanta, GA). At 80% confluence, the cells were differentiated into neurons in the presence of 2% FBS and 1.25% dimethyl sulfoxide in DMEM for 5 days. In addition to the assessment of the neuronal phenotype by light microscopy, the detection of synaptophysin protein levels was used to confirm successful differentiation. During the final 6 or 24 hours of differentiation, the cells were treated with 10-100 µM DMF and harvested as described above for primary neurons, with the addition of phosphatase inhibitors to the DPBS washes and the RIPA buffer used for scraping to prevent dephosphorylation of CRMP-2. […] To ensure that the succinated proteins detected were solely of neuronal origin, N1E-115 neuroblastoma cells were differentiated to a neuronal phenotype (confirmed by increased synaptophysin content) and treated with DMF for 24 hours. […]

[2] = tested on: neurons and astrocytes; experiment: LC-MS/MS identification of succinated proteins, neurons and astrocytes overall; type: cell-based; conditions: both neurons and astrocytes
Experimental: For the identification of succination sites, 60 μg of protein from primary neurons, 200 μg of protein from primary astrocytes or 120 μg of protein from differentiated N1E-115 neurons were resolved by SDS-PAGE, and the gels were stained with Coomassie Brilliant Blue. After de-staining, all protein bands were excised from the gels and subjected to in-gel digestion with trypsin. Briefly, proteins were reduced with 10 mM dithiothreitol and alkylated with 170 mM 4-vinylpyridine. Trypsin digestion was carried out overnight at 37° C. in the presence of 1.5 ng sequence grade modified trypsin (Promega®, Madison, WI) in 50 mM ammonium bicarbonate. After gel extraction, the peptides were re-suspended in 1% acetic acid and analyzed on a DionexTM […] system (Thermo ScientificTM, Rockford, IL) coupled to an Orbitrap Velos ProTM mass spectrometer (Thermo ScientificTM, Rockford, IL). The LC solvents were 2% acetonitrile/0.1% formic acid (Solvent A) and 80% acetonitrile/0.1% formic acid (Solvent B). […] The data-dependent acquisition (DDA) data were analyzed using Proteome DiscovererTM 1.4 software with SEQUEST search engine against the uniprot_ref_mouse database (2014-10-03 version, 52,474 proteins) or uniprot_ref_rat database (2011-5-11 version, 39765 proteins) with Xcorr>1 validation (+2) and an allowance for 2 missed cleavages. […]

COC(=O)/C=C/C(=O)OC [DMF, dimethyl fumarate]
HO-1 expression [1]: significantly induced HO-1 expression | number of distinct protein subunits directly modified by either DMF or MMF [2]: 24
